According to ChEMBL document CHEMBL1129713, “Inhibitors of MMP-1: an examination of P1 C gem-disubstitution in the succinamide hydroxamate series” (Bioorg Med Chem Lett, 1996):

Target: T1, Interstitial collagenase (Homo sapiens, UniProt P03956)
T1 sequence (P03956 whole entry): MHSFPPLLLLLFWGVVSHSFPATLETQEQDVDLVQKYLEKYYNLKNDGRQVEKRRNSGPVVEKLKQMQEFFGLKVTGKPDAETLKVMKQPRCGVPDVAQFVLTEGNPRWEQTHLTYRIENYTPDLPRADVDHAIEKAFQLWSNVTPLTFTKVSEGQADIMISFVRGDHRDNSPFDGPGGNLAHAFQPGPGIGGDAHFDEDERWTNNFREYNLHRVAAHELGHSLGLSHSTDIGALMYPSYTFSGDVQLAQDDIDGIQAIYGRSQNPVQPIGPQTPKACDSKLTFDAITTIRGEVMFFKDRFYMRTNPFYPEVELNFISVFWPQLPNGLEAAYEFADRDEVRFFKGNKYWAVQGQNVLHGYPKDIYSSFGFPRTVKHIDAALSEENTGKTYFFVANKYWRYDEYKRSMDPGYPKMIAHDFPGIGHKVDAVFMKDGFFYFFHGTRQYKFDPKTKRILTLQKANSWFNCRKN
Assay: Inhibition of Matrix Metallo Proteinase-1 (MMP-1)

SMILES	IC50 [nM]
CNC(=O)[C@H](Cc1ccc(OC)cc1)NC(=O)C1(CC(=O)NO)CCCCC1	150
CNC(=O)[C@H](Cc1ccc(OC)cc1)NC(=O)C(C)(CC(=O)NO)CC(C)C (stereo partly specified)	460
CNC(=O)[C@H](Cc1ccc(OC)cc1)NC(=O)C1(CC(=O)NO)CCCC1	2800
CNC(=O)[C@H](Cc1ccc(OC)cc1)NC(=O)[C@@]1(CC(=O)NO)CCc2ccccc21	> 30000
CNC(=O)[C@H](Cc1ccc(OC)cc1)NC(=O)C1(CC(=O)NO)Cc2ccccc2C1	570
CNC(=O)[C@H](Cc1ccc(OC)cc1)NC(=O)[C@]1(CC(=O)NO)CCc2ccccc21	17500
CNC(=O)[C@H](Cc1ccc(OC)cc1)NC(=O)C(C)(CC(=O)NO)c1ccccc1 (stereo partly specified)	3800
CNC(=O)[C@H](Cc1ccc(OC)cc1)NC(=O)C(CC(=O)NO)c1ccccc1 (stereo partly specified)	40
CNC(=O)[C@H](Cc1ccc(OC)cc1)NC(=O)C1(CC(=O)NO)CCCc2ccccc21 (stereo partly specified)	770
CNC(=O)[C@H](Cc1ccc(OC)cc1)NC(=O)C1(CC(=O)NO)Cc2ccccc21 (stereo in doubt; form 1)	2200
CNC(=O)[C@H](Cc1ccc(OC)cc1)NC(=O)C1(CC(=O)NO)Cc2ccccc21 (stereo in doubt; form 2)	800
